Test results reported in ChEMBL document CHEMBL1201862, “PubChem BioAssay data set” (2004).
“And” between values parts separate entries of the source, which are not always exact repeats. Equal values may be shown once.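 Following 48 hours of exposure in 96-well plates, responses at five concentrations were used to interpolate endpoints linearly. Here, GI50 denotes the concentration required for 50% inhibition of growth.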 The source made the active and inactive calls. Rule as the data show it: active = GI50 up to about 1.1 µM and inactive = higher.

Assays:
Test in all cases: NCI-60 cell line screen, 48 h
SK-MEL-5 = tested on: SK-MEL-5
SK-MEL-28 = tested on: SK-MEL-28
SK-OV-3 = tested on: SK-OV-3
NCI-H226 = tested on: NCI-H226
HOP-92 = tested on: HOP-92
HOP-62 = tested on: HOP-62
RPMI-8226 = tested on: RPMI-8226
SF-268 = tested on: SF-268
A549 = tested on: A549
MDA-N = tested on: MDA-N
SN12C = tested on: SN12C
MOLT-4 = tested on: MOLT-4
CCRF-CEM = tested on: CCRF-CEM
K562 = tested on: K562
DU-145 = tested on: DU-145
Hs-578T = tested on: Hs-578T
UACC-257 = tested on: UACC-257
PC-3 = tested on: PC-3
HCC 2998 = tested on: HCC 2998
OVCAR-8 = tested on: OVCAR-8
CAKI-1 = tested on: CAKI-1
SNB-75 = tested on: SNB-75
MDA-MB-231 = tested on: MDA-MB-231
SF-539 = tested on: SF-539
BT-549 = tested on: BT-549
NCI/ADR-RES = tested on: NCI/ADR-RES
RXF 393 = tested on: RXF 393
SNB-19 = tested on: SNB-19
TK-10 = tested on: TK-10
NCI-H460 = tested on: NCI-H460
OVCAR-4 = tested on: OVCAR-4
MCF7 = tested on: MCF7
SK-MEL-2 = tested on: SK-MEL-2
NCI-H522 = tested on: NCI-H522
HT-29 = tested on: HT-29
SF-295 = tested on: SF-295
A498 = tested on: A498
LOX IMVI = tested on: LOX IMVI
EKVX = tested on: EKVX
IGROV-1 = tested on: IGROV-1
M14 = tested on: M14
786-0 = tested on: 786-0
MDA-MB-435 = tested on: MDA-MB-435
COLO 205 = tested on: COLO 205
Malme-3M = tested on: Malme-3M
KM12 = tested on: KM12
SW-620 = tested on: SW-620
ACHN = tested on: ACHN
OVCAR-5 = tested on: OVCAR-5
UACC-62 = tested on: UACC-62
HCT-116 = tested on: HCT-116
HCT-15 = tested on: HCT-15
U-251 = tested on: U-251

Q: Which GI50 (SK-MEL-5) does the source give for `CCOC(=O)[C@]1(OC(C)=O)C[C@H](OC(C)=O)[C@@H](C(F)COP(=O)(OCc2ccccc2)OCc2ccccc2)O1` (stereo partly drawn) here?
A: The GI50 was > 100 µM (inactive).

Q: What about the GI50 (SK-MEL-28) of the same compound?
A: The GI50 was > 100 µM (inactive).

Q: And the GI50 (SK-OV-3)?
A: Its GI50 is > 100 µM (inactive).

Q: What about the GI50 (NCI-H226) of the same compound?
A: The GI50 was > 100 µM (inactive).

Q: What about the GI50 (HOP-92) of the same compound?
A: Its GI50 is 18.5 µM (inactive).

Q: What about the GI50 (HOP-62) of the same compound?
A: The GI50 was > 100 µM (inactive).

Q: And the GI50 (RPMI-8226)?
A: Its GI50 is 19.8 µM (inactive) and 25.9 µM (inactive).

Q: What about the GI50 (SF-268) of the same compound?
A: The GI50 was > 100 µM (inactive).

Q: What about the GI50 (A549) of the same compound?
A: The GI50 was > 100 µM (inactive).

Q: What about the GI50 (MDA-N) of the same compound?
A: Its GI50 is > 100 µM (inactive).

Q: What about the GI50 (SN12C) of the same compound?
A: Its GI50 is > 100 µM (inactive).

Q: And the GI50 (MOLT-4)?
A: The GI50 was > 100 µM (inactive).

Q: What about the GI50 (CCRF-CEM) of the same compound?
A: Its GI50 is 72.9 µM (inactive) and 49 µM (inactive).

Q: And the GI50 (K562)?
A: The GI50 was 71.4 µM (inactive).

Q: What about the GI50 (DU-145) of the same compound?
A: The GI50 was > 100 µM (inactive).

Q: And the GI50 (Hs-578T)?
A: Its GI50 is > 100 µM (inactive).

Q: And the GI50 (UACC-257)?
A: Its GI50 is 76.2 µM (inactive).

Q: And the GI50 (PC-3)?
A: Its GI50 is 32.4 µM (inactive) and 58.6 µM (inactive).

Q: What about the GI50 (HCC 2998) of the same compound?
A: The GI50 was 76.2 µM (inactive).

Q: What about the GI50 (OVCAR-8) of the same compound?
A: Its GI50 is > 100 µM (inactive).

Q: And the GI50 (CAKI-1)?
A: Its GI50 is > 100 µM (inactive).

Q: And the GI50 (SNB-75)?
A: Its GI50 is > 100 µM (inactive).

Q: What about the GI50 (MDA-MB-231) of the same compound?
A: The GI50 was 57.3 µM (inactive).

Q: And the GI50 (SF-539)?
A: Its GI50 is > 100 µM (inactive).

Q: And the GI50 (BT-549)?
A: The GI50 was > 100 µM (inactive).

Q: And the GI50 (NCI/ADR-RES)?
A: Its GI50 is > 100 µM (inactive).

Q: What does the source list for `COc1ccc(-c2c(C#N)c(-c3ccc(C)cc3)n(NS(=O)(=O)c3ccc(C)cc3)c(=O)c2C#N)cc1`?
A: GI50 (RXF 393): 38.8 µM (inactive); GI50 (SNB-19): 47.4 µM (inactive); GI50 (TK-10): 87.3 µM (inactive); GI50 (NCI-H460): 54.3 µM (inactive); GI50 (OVCAR-4): 31.3 µM (inactive); GI50 (SK-MEL-5): 23.5 µM (inactive); GI50 (MCF7): 24.5 µM (inactive); GI50 (SK-MEL-2): 58.9 µM (inactive); GI50 (SK-MEL-28): 61.1 µM (inactive); GI50 (NCI-H522): 80.7 µM (inactive); GI50 (SK-OV-3): 70.5 µM (inactive); GI50 (NCI-H226): > 100 µM (inactive); GI50 (HT-29): 44.1 µM (inactive); GI50 (HOP-92): 74.6 µM (inactive); GI50 (HOP-62): 39.7 µM (inactive); GI50 (SF-295): 37.8 µM (inactive); GI50 (RPMI-8226): 17.3 µM (inactive); GI50 (A498): 92 µM (inactive); GI50 (SF-268): 56.6 µM (inactive); GI50 (A549): 41 µM (inactive); GI50 (MDA-N): 75 µM (inactive); GI50 (SN12C): 66.2 µM (inactive); GI50 (MOLT-4): 19.8 µM (inactive); GI50 (LOX IMVI): 39.3 µM (inactive); GI50 (CCRF-CEM): 23.7 µM (inactive); GI50 (EKVX): 53.5 µM (inactive); GI50 (K562): 57 µM (inactive); GI50 (IGROV-1): 39.5 µM (inactive); GI50 (Hs-578T): 25.1 µM (inactive); GI50 (M14): 55.2 µM (inactive); GI50 (UACC-257): > 100 µM (inactive); GI50 (786-0): 86.5 µM (inactive); GI50 (MDA-MB-435): 65.9 µM (inactive); GI50 (COLO 205): 90.2 µM (inactive); GI50 (Malme-3M): > 100 µM (inactive); GI50 (KM12): 24.8 µM (inactive); GI50 (SW-620): 49.5 µM (inactive); GI50 (PC-3): 36.6 µM (inactive); GI50 (HCC 2998): 62.1 µM (inactive); GI50 (ACHN): 50.6 µM (inactive); GI50 (OVCAR-8): 72.3 µM (inactive); GI50 (CAKI-1): 63.7 µM (inactive); GI50 (SNB-75): 31.2 µM (inactive); GI50 (OVCAR-5): > 100 µM (inactive); GI50 (UACC-62): 43.6 µM (inactive); GI50 (MDA-MB-231): > 100 µM (inactive); GI50 (HCT-116): 38.5 µM (inactive); GI50 (SF-539): 32.4 µM (inactive); GI50 (HCT-15): 60.3 µM; GI50 (BT-549): 33.9 µM (inactive); GI50 (U-251): 53.6 µM (inactive); GI50 (NCI/ADR-RES): 53.7 µM (inactive)
